From PubChem BioAssay AID2060613 (Molecular Pharmacology Branch, DTP, NCI, 2025)
pIC50: −log10 of the molar value.

Tested on: 233499-124-R-J3-PDC complex spheroid viability
Assay: Anticancer human tumor 233499-124-R-J3-PDC patient-derived colon adenocarcinoma cell line growth inhibition [CLK]
Conditions: for pIC50: curve of first compound; for viability, T/C: stronger effect = lower value; active = viability on the fitted dose curve at most 10% of control; inactive = the rest
Excerpt: A high-throughput screen of multi-cell type tumor spheroids was designed to identify active combinations of […] and targeted small molecules. Complex spheroids include a stromal component modeled by human endothelial cells (HUVEC) and fibroblasts modeled by human mesenchymal stem cells (MSCs). The concentration ranges selected for each drug and investigational agent were based upon clinically achievable concentrations if the clinical Cmax of the agent was known.
Compounds. The drugs and investigational agents: cirtuvivint (SM08502; NSC835563), CC-671 (NSC850746), vemurafenib (NSC761431), tapotoclax (NSC804041), sotorasib (NSC818433), adagrasib (NSC831453), MRTX-1133 (NSC836407), BAY2416964 (NSC825713), copanlisib (NSC816437), inavolisib (NSC800729), abemaciclib (NSC768073), osimertinib (NSC779217), entinostat (NSC756642), eltanexor (KPT-8602, NSC794443), venetoclax (NSC766270), ceralasertib (NSC777638), bortezomib (NSC756655), olaparib (NSC753686), talazoparib (NSC767125), alisertib (NSC759677), peposertib (NSC802822), gemcitabine (NSC613327), 5-fluorouracil (NSC19893), SN-38 (NSC673596), oxaliplatin (NSC266046), paclitaxel (NSC125973), and doxorubicin (NSC123127), were obtained from the National Cancer Institute (NCI) Developmental Therapeutics Program Chemical Repository. The FDA-approved anticancer drug set is available from the Developmental Therapeutics Program at https://dtp.cancer.gov/organization/dscb/obtaining/available plates.htm. […] The stock solutions were prepared in dimethyl sulfoxide (DMSO, Sigma-Aldrich, St. Louis, MO, cat. D2650), except for the platinum complexes which were prepared in saline (Quality Biological, Gaithersburg, MD, cat. 114-055-101), at 800-fold the tested concentration and stored at -70 degrees C prior to their use. All drugs and investigational agents were tested over a range starting from a high concentration at or near the clinical Cmax and decreasing in half-log increments. If the clinical Cmax for an agent had not been determined, the highest concentration tested was 10 microM.
Cell Culture. All cells were maintained in an incubator at 37 degrees C and 5% CO2 with 95% humidity. The PDC lines were cultured according to standard operating procedures established by the NCI PDMR. Briefly, all PDCs were thawed and cultured in Matrigel-coated flasks prepared with a working solution of 1X Ham's F-12 nutrient mix, without supplementation (Invitrogen, Waltham, MA, cat. 11765054), 100 U/mL penicillin-streptomycin (Invitrogen, cat. 15140122), and 2.5% Matrigel (Corning Inc., Corning, NY, cat. 354248) for the first three passages. The 947758-054-R-J2-PDC line was cultured in 6B/Colon 1A media, which includes advanced DMEM/F-12 (Thermo Fisher Scientific, cat. 12634028), 10 mM HEPES (Thermo Fisher Scientific, cat. 15630080), 1X GlutaMAX supplement (Thermo Fisher Scientific, cat. 35050061), 0.1 mg/mL primocin (InvivoGen, cat. ant-pm-2), 10% defined fetal bovine serum, heat inactivated (HyClone Laboratories Inc., cat. SH30070.03HI), 1.25 mM N-Acetyl-L-cysteine (Sigma-Aldrich, cat. A9165), 10 mM nicotinamide (Sigma-Aldrich, cat. N0636), 1X B-27 supplement (Thermo Fisher Scientific, cat. 17504044), 1X N-2 supplement (Thermo Fisher Scientific, cat. 17502048), and 10 microM Y-27632 dihydrochloride (Tocris Bioscience, cat. 1254). The 876862-298-R-J1-PDC was cultured in 6E media, which includes all 6B/Colon 1A media components plus 50% L-WRN conditioned media (ATCC, cat. CRL-3276), 50 ng/mL recombinant human EGF recombinant protein (hEGF; Thermo Fisher Scientific, cat. PHG0311), 10 ng/mL recombinant human fibroblast growth factor 10 (hGFG-10; PeproTech, cat. 100-26), 1 ng/mL recombinant human fibroblast growth factor 2 (hFGF-2; PeproTech, cat. 100-18B), and 1 µM prostaglandin E2 (PGE2; Tocris, cat. 2296). The 227483-062-R1-J1-PDC line was cultured in Panc media, containing all 6E components except hFGF-2, with the addition of 500 nM SB-431542 (Selleckchem, cat. S1067) and 10 nM gastrin (Tocris, cat. 3006). […]

[1] = second compound 0.0316 µM, first compound 0.0316 µM
[2] = second compound 0.0316 µM, first compound 0.1 µM
[3] = second compound 0.0316 µM, first compound 0.316 µM
[4] = second compound 0.0316 µM, first compound 1 µM
[5] = second compound 0.0316 µM, first compound 3.16 µM
[6] = second compound 0.0316 µM, first compound 10 µM
[7] = second compound 0.1 µM, first compound 0.0316 µM
[8] = second compound 0.1 µM, first compound 0.1 µM
[9] = second compound 0.1 µM, first compound 0.316 µM
[10] = second compound 0.1 µM, first compound 1 µM
[11] = second compound 0.1 µM, first compound 3.16 µM
[12] = second compound 0.1 µM, first compound 10 µM
[13] = second compound 0.316 µM, first compound 0.0316 µM
[14] = second compound 0.316 µM, first compound 0.1 µM
[15] = second compound 0.316 µM, first compound 0.316 µM
[16] = second compound 0.316 µM, first compound 1 µM
[17] = second compound 0.316 µM, first compound 3.16 µM
[18] = second compound 0.316 µM, first compound 10 µM
[19] = second compound 1 µM, first compound 0.0316 µM
[20] = second compound 1 µM, first compound 0.1 µM
[21] = second compound 1 µM, first compound 0.316 µM
[22] = second compound 1 µM, first compound 1 µM
[23] = second compound 1 µM, first compound 3.16 µM
[24] = second compound 1 µM, first compound 10 µM
[25] = second compound 3.16 µM, first compound 0.0316 µM
[26] = second compound 3.16 µM, first compound 0.1 µM
[27] = second compound 3.16 µM, first compound 0.316 µM
[28] = second compound 3.16 µM, first compound 1 µM
[29] = second compound 3.16 µM, first compound 3.16 µM
[30] = second compound 3.16 µM, first compound 10 µM
[31] = second compound 10 µM, first compound 0.0316 µM
[32] = second compound 10 µM, first compound 0.1 µM
[33] = second compound 10 µM, first compound 0.316 µM
[34] = second compound 10 µM, first compound 1 µM
[35] = second compound 10 µM, first compound 3.16 µM
[36] = second compound 10 µM, first compound 10 µM
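Note: spheroids exposed to the drug combinations for seven days.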
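Throughout, for viability, T/C: percent viability relative to DMSO vehicle control wells taken as 100%.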

CC(CO)NC(=O)c1cc(-c2ccc(Cl)cc2)nn(-c2cnn(C)c2)c1=O (stereo not given) + CN1CCN(c2cc(C(=O)Nc3cc4cc(-c5cnn(C)c5)ccc4cn3)ccn2)CC1
< 5.00: pIC50 (second compound 0.0316 µM) | pIC50 (second compound 0.1 µM) | pIC50 (second compound 0.316 µM)
inactive: viability, T/C [1] 97.5% | viability, T/C [2] 100% | viability, T/C [3] 98.1% | viability, T/C [4] 92% | viability, T/C [5] 98.5% | viability, T/C [6] 66.4% | viability, T/C [7] 86.3% | viability, T/C [8] 112% | viability, T/C [9] 103% | viability, T/C [10] 94.2% | viability, T/C [11] 94.3% | viability, T/C [12] 80% | viability, T/C [13] 93.3% | viability, T/C [14] 94.4% | viability, T/C [15] 92.2% | viability, T/C [16] 94.8% | viability, T/C [17] 103% | viability, T/C [18] 68.9%
active: viability, T/C [19] 1.24% | viability, T/C [20] 1.01% | viability, T/C [21] 6.77% | viability, T/C [22] 3.75% | viability, T/C [23] 6.32% | viability, T/C [24] 0.66% | viability, T/C [25] 0.63% | viability, T/C [26] 0.7% | viability, T/C [27] 0.8% | viability, T/C [28] 0.74% | viability, T/C [29] 0.73% | viability, T/C [30] 0.73% | viability, T/C [31] 0.53% | viability, T/C [32] 0.48% | viability, T/C [33] 1.5% | viability, T/C [34] 0.55% | viability, T/C [35] 0.5% | viability, T/C [36] 0.6%
> 7.50: pIC50 (second compound 1 µM) | pIC50 (second compound 3.16 µM) | pIC50 (second compound 10 µM)

COc1c(OCCCN2CCOCC2)ccc2c3n(c(=NC(=O)c4cnc(N)nc4)nc12)CCN3 + CNC(=O)c1ccc(Nc2nc(OC3CCCC3)c3c(-c4ccc5nc(C)oc5c4)c[nH]c3n2)c(OC)c1
6.76: pIC50 (second compound 0.0316 µM)
7.59: pIC50 (second compound 1 µM)
7.57: pIC50 (second compound 10 µM)
7.05: pIC50 (second compound 0.316 µM)
inactive: viability, T/C (second compound 0.0316 µM, first compound 0.00316 µM) 90% | viability, T/C (second compound 0.0316 µM, first compound 0.01 µM) 91% | viability, T/C [1] 81.6% | viability, T/C [2] 65.3% | viability, T/C [3] 33.2% | viability, T/C (second compound 0.1 µM, first compound 0.00316 µM) 70.5% | viability, T/C (second compound 0.1 µM, first compound 0.01 µM) 85.4% | viability, T/C [7] 73.2% | viability, T/C [8] 53.4% | viability, T/C [9] 16.1% | viability, T/C (second compound 0.316 µM, first compound 0.00316 µM) 75.3% | viability, T/C (second compound 0.316 µM, first compound 0.01 µM) 81.8% | viability, T/C [13] 68.8% | viability, T/C [14] 45.7% | viability, T/C [15] 22.6% | viability, T/C (second compound 1 µM, first compound 0.00316 µM) 73.5% | viability, T/C (second compound 1 µM, first compound 0.01 µM) 59.4% | viability, T/C [19] 49% | viability, T/C [20] 31.6% | viability, T/C [21] 23% | viability, T/C (second compound 3.16 µM, first compound 0.00316 µM) 62.9% | viability, T/C (second compound 3.16 µM, first compound 0.01 µM) 68.1% | viability, T/C [25] 50% | viability, T/C [26] 38.8% | viability, T/C [27] 15.3% | viability, T/C (second compound 10 µM, first compound 0.00316 µM) 75.1% | viability, T/C (second compound 10 µM, first compound 0.01 µM) 65.9% | viability, T/C [31] 45.5% | viability, T/C [32] 31% | viability, T/C [33] 10.5%
active: viability, T/C [4] 5.74% | viability, T/C [10] 3.37% | viability, T/C [16] 3.62% | viability, T/C [22] 3.52% | viability, T/C [28] 2.16% | viability, T/C [34] 2.07%
7.38: pIC50 (second compound 3.16 µM)
6.95: pIC50 (second compound 0.1 µM)

CC(CO)NC(=O)c1cc(-c2ccc(Cl)cc2)nn(-c2cnn(C)c2)c1=O (stereo not given) + CNC(=O)c1ccc(Nc2nc(OC3CCCC3)c3c(-c4ccc5nc(C)oc5c4)c[nH]c3n2)c(OC)c1
< 5.00: pIC50 (second compound 0.0316 µM) | pIC50 (second compound 0.1 µM) | pIC50 (second compound 0.316 µM) | pIC50 (second compound 1 µM) | pIC50 (second compound 3.16 µM) | pIC50 (second compound 10 µM)
inactive: viability, T/C [1] 94.6% | viability, T/C [2] 98.2% | viability, T/C [3] 90.1% | viability, T/C [4] 94.6% | viability, T/C [5] 94% | viability, T/C [6] 88.9% | viability, T/C [7] 83.5% | viability, T/C [8] 84.7% | viability, T/C [9] 71.9% | viability, T/C [10] 80.6% | viability, T/C [11] 87.8% | viability, T/C [12] 61.9% | viability, T/C [13] 91.4% | viability, T/C [14] 64.6% | viability, T/C [15] 88.5% | viability, T/C [16] 83.9% | viability, T/C [17] 83.5% | viability, T/C [18] 66.6% | viability, T/C [19] 84.3% | viability, T/C [20] 85% | viability, T/C [21] 86.5% | viability, T/C [22] 86.7% | viability, T/C [23] 81.9% | viability, T/C [24] 79.2% | viability, T/C [25] 84.6% | viability, T/C [26] 59.3% | viability, T/C [27] 62.4% | viability, T/C [28] 83.3% | viability, T/C [29] 83.7% | viability, T/C [30] 70.8% | viability, T/C [31] 68.6% | viability, T/C [32] 73.9% | viability, T/C [33] 69.8% | viability, T/C [34] 72.2% | viability, T/C [35] 69.7% | viability, T/C [36] 64.2%

CN1CCN(c2cc(C(=O)Nc3cc4cc(-c5cnn(C)c5)ccc4cn3)ccn2)CC1
529 nM [middle of 10 runs]: IC50 (compound alone, run of 07/31/2023)
active: viability, T/C (compound 1 µM) 1.16% [middle of 11 runs] | viability, T/C (compound 3.16 µM) 0.72% [middle of 10 runs] | viability, T/C (compound 10 µM) 0.46% [middle of 10 runs]
